Source: patent publication US20250057958A1, “CYTOTOXICITY TARGETING CHIMERAS FOR CCR2-EXPRESSING CELLS” (GLAXOSMITHKLINE INTELLECTUAL PROPERTY DEVELOPMENT LIMITED, priority 2022, published 2025)

What was measured:
[1] = Blood drug concentration analysis (PK) in the in vivo depletion assay; parameters: species or system human CCR2 (hCCR2) knock-in mice; details: human CCR2 (hCCR2) knock-in, C57 background, mouse, whole blood, LC-MS/MS, IV bolus 0.1 mpk compound + 10 mpk anti-cotinine antibody, 48 hours post-dose, read-out: Exposure of Compound of Formula (I) 48 hours post-dose
Procedure: (§1) Human CCR2 (hCCR2) knock-in mice (C57 background) were dosed intravenously with a PBS solution containing a compound of Formula (I) to measure depletion of CCR2 expressing cells in peripheral blood. Peripheral blood from IV dosed mice was also analyzed to determine PK properties of the compounds of Formula (I).
(§2) Administration to Animal: Solution formulation of antibody and compound of Formula (I) was injected (bolus injection) to the restrained mouse in the right/left lateral tail vein. Animals were dosed with 0.1 milligram per kilogram (mpk) of the compound of Formula (I) and 10 mpk of the anti-cotinine antibody.
Collection of Blood for PK: Blood was collected at time points 0.25 hour, 2 hours, and […] following administration (50 μL/time point) through retro-orbital bleeding under mild isoflurane anesthesia.
(§3) Terminal bleeding at end of experiment (48 hr): Approximately 250 μL of blood in K2EDTA tube and approximately 250 μL of blood in SST (serum separation tube) was collected from each mouse through retro-orbital bleeding under deep isoflurane anesthesia. After bleeding, each mouse was sacrificed by cervical dislocation. The blood distribution at termination was determined as follows: • For PK: 50 μL of K2EDTA blood was transferred to another tube for PK • Flow cytometry: Remaining blood (˜200 μL) was used for flow cytometry analysis. • For serum collection: serum separator tubes (BD) were centrifuged at 4° C., 5000 rpm for 15 minutes. Approximately 100 μL serum was separated and stored at −80° C. for further usage. • Blood drug concentration: Samples collected at the various timepoints (0.25 hr, 2 hr, 24 and 48 hr) were analyzed to determine blood drug concentration.
Blood drug concentration analysis: Drug concentration in blood samples was determined by an LC-MS/MS-based bioanalytical method developed at Syngene. Samples were analyzed on Q-Trap, API-5500 LC-MS/MS system coupled with Exion UHPLC system from SCIEX, USA operated in multiple reaction monitoring mode employing electrospray ionization technique in positive polarity. Analyte and internal standard peaks were resolved on Synergi Polar, 75×2.0 mm, 4 μcolumn using mobile phase 10 mM Ammonium acetate in Milli-Q water as phase A and 0.1% Formic acid in acetonitrile as Phase B. Gradient elution was performed with initial composition 95% Phase A at 0.0 min, holding it for 0.2 minutes, ramping to 5% by 1.0 minute, keeping the same for next 0.5 minutes and coming back to 95% by 1.6 minutes. The total run time was 2 minutes.
Working dilutions for calibration curve and quality control standards were prepared by serially diluting 20 mg/mL stock solution with DMSO. Spiked concentrations for calibration curve in the whole blood ranged from 1 ng/mL to 1000 ng/mL. […]

[2] = target: T1, CHOK1 cells engineered to overexpress human CCR2 (Homo sapiens, UniProt P41597); experiment: Antibody dependent cellular cytotoxicity (ADCC) reporter assay; type: cell-based; details: with anti-cotinine antibody (SEQ ID NO: 11/12, human IgG1 Fc S239D/I332E); Jurkat FcγRIIIa NFAT-luciferase reporter cells; 12-18 hours; average if more than one run; read-out: ADCC Reporter Assay pEC50 (converted)
T1 construct: expressed in transfected cells; host or cells: CHOK1 cells
Procedure: An antibody dependent cellular cytoxocity reporter assay was conducted using the following four assay components: (i) ARM compound of Formula (I) targeting CCR2 (concentrations ranging from 1 pM to 10 μM) (ii) anti-cotinine antibody having a heavy chain sequence of SEQ ID NO: 11 and a light chain sequence of SEQ ID NO: 12 (rabbit variable region with human IgG1 Fc domain containing a DE mutation (S239D/I332E)) (concentrations ranging from 0.01 μg/mL to 200 μg/mL); (iii) target cells: CHOK1 cells engineered to overexpress either human CCR2 (typically 1000-20,000 cells perwell) and (iv) reporter cells: Jurkat cells engineered to express FcγRIIIa with the reporter gene luciferase under the control of the NFAT promoter (typically 3000-75,000 cells per well). Reagents were combined in a final volume of 20 μL in a 384—well tissue culture treated plate. All four assay components were incubated together for about 12-18 hours. Thereafter, BioGlo Detection reagent (Promega) was added to the wells to lyse the cells and provide a substrate for the luciferase reporter protein. Luminescence signal was measured on a microplate reader and signal:background was calculated by dividing the signal of a test well by the signal obtained when no ARM compound of Formula (I) was added. EC50 calculations were done using Graphpad Prism Software, specifically a nonlinear regression curve fit (Y=Bottom+(Top−Bottom)/(1+10 ^((Log EC50−X)*HillSlope))).
ARMs compounds of Formula (I) of the invention were tested for ADCC activity in the above assay in or more experimental runs and the results are shown in Table 3 below. Potency of the compounds of Formula (I) of the invention is reported as a pEC50 value. The pEC50 value is the negative log of the EC50 value, wherein the EC50 value is the half maximal effective concentration measured in molar (M). For compounds tested in more than one experimental run, the pEC50 value is reported as an average.

[3] = system: CCR2 expressing cells (CD11b+Ly6c+Hi monocytes); experiment: In vivo depletion assay (flow cytometry of peripheral blood); parameters: species or system human CCR2 (hCCR2) knock-in mice; details: IV bolus 0.1 mpk compound + 10 mpk anti-cotinine antibody (mouse IgG2a Fc), 48 hours
Procedure: as §1
Formulations preparation: On the day of experiment, the stock solution of the compound of Formula (I) was removed from storage at −20° C. and thawed at room temperature. Anti-cotinine antibody having a heavy chain sequence of SEQ ID NO: 13 and a light chain sequence of SEQ ID NO: 14 (rabbit variable region sequence with mouse IgG2a Fc domain), if required was removed from storage at −80° C. and thawed at room temperature. Antibody vials were immediately transferred into wet ice after thawing. Compounds of Formula (I) were further diluted in DMSO as per experimental requirements.
Formulation composition: The formulation composition was Saline: DMSO: PBS. Saline was added based on the quantity required and then stock solution of the compound of Formula (1) prepared in DMSO, followed by addition of antibody in PBS. Formulations were incubated at room temperature for 30 minutes before administration to the mouse. DMSO was used at 1 to 2% (v/v) in the final formulation.
as §2, §3
Flow cytometry analysis: CCR2 depletion in peripheral blood was determined by flow cytometry. Briefly, peripheral blood was collected from all animals at the end of study termination and processed. […]
Percent depletion of CD11b+Ly6c+Hi cells and CCR2 expression for the different treatment groups was determined. […]

[4] = target: human alpha1 nicotinic acetylcholine (nACh) receptor (Homo sapiens, UniProt P02708+Q07001); experiment: Nicotinic acetylcholine receptor antagonism assay (IONFlux automated patch clamp); type: cell-based
human alpha1 nicotinic acetylcholine (nACh) receptor, sequence (P02708 21-457): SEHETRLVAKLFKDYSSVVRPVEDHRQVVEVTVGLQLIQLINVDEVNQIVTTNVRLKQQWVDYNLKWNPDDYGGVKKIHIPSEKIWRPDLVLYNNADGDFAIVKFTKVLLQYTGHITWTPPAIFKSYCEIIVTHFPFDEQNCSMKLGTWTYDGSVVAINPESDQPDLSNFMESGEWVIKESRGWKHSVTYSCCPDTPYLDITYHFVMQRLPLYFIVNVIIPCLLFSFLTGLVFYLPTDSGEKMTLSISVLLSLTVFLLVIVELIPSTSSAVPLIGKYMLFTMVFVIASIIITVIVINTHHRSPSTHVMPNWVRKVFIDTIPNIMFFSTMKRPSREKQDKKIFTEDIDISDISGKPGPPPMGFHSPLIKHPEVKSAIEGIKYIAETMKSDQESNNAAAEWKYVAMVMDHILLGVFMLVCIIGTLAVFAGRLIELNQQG
human alpha1 nicotinic acetylcholine (nACh) receptor, sequence (P11230 24-501 partner): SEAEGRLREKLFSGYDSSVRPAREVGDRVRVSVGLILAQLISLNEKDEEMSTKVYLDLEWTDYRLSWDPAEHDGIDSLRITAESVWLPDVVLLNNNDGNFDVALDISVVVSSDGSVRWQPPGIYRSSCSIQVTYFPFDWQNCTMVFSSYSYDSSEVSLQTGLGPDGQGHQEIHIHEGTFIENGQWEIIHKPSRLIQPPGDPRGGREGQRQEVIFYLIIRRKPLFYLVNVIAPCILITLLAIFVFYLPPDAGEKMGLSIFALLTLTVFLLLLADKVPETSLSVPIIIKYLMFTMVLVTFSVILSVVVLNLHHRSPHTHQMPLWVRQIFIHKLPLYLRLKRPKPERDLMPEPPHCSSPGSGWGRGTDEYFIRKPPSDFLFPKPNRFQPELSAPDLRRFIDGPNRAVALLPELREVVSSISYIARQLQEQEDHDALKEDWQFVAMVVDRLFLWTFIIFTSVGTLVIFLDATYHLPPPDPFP
human alpha1 nicotinic acetylcholine (nACh) receptor, sequence (Q07001 22-517): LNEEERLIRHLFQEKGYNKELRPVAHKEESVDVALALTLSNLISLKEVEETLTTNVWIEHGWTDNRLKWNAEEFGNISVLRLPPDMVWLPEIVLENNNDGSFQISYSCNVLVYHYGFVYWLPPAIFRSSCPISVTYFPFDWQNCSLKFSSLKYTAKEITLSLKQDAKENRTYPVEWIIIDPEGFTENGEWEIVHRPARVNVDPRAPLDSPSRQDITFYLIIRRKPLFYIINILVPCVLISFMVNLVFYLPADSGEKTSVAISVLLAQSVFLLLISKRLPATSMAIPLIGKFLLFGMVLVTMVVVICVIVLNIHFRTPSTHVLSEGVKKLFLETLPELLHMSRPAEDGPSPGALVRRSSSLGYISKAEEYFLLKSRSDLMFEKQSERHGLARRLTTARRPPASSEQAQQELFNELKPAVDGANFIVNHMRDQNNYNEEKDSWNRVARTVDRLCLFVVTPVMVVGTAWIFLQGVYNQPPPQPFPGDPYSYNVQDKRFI
Text: Cells expressing human alpha1 nicotinic acetylcholine (nACh) receptor (nAChR) were washed and dissociated using Trypsin containing buffer. Cells were then washed and seeded at a density of 3-5 million cells/mL and allowed to grow for 3 days. […] The receptor was then stimulated via addition of acetylcholine (ACh) and activation of the receptor was monitored via the IONFlux automated patch clamp system. IonFlux Data Analyzer software was utilized to perform leak subtraction and measure (min) peak current amplitude.
Data processing: (1) Current values recorded for vehicle only applications in individual traps/patterns were subtracted from corresponding current amplitude values for control, test article and control+test article. (2) Control response was calculated as % of the average response of the 3rd out of total 3 ACh (10 mM) applications alone. In rare situations, if the 3rd ACh response was obscured due to technical artifacts, the 2nd and/or 1st ACh (10 mM) application was considered as control. The peak current amplitude generated in the presence of each test article concentration was then used to calculate the % inhibition as compared to control response (10 mM ACh alone). These estimates were further corrected for vehicle response and run down corrected by normalizing with time matched control responses (10 mM ACh alone). The corrected percentages were then fit with a non-linear function in GraphPad Prism 6 (or later versions) to determine the IC50.
Exclusion criteria: (i) any n's with poor recording quality, (ii) control current amplitude <500 pA or (iii) significant outliers, as determined by the Grubbs' test.
ARMs compounds of Formula (I) of the invention were tested for antagonism of the nAChR in the above assay in […] experimental runs and the results are shown in Table 5 below. Antagonistic activity of the compounds of Formula (I) of the invention is reported as an IC50 value (half maximal inhibitory concentration) and the maximum percentage antagonism observed at the highest concentration of compound of Formula (I) tested, as indicated in Table 5. For compounds tested in more than one experimental run, the IC50 value is reported as an average.

Compound	concentration at 48 h [1] [ng/mL]	EC50 [2] [nM]	% Depletion of CCR2 expressing cells [3] [%]	Emax at 33.33 µM ([4]; maximum percentage antagonism at highest concentration tested, 33.33 μM, read-out: Maximum Response (%)) [%]	IC50 ([4]; nAChR antagonism, stimulated with ACh, average if more than one run) [nM]
CC(=O)N[C@@H]1C[C@H](NC(C)(C)C)CC[C@@H]1N1CC[C@H](Nc2nc(CCCNC(=O)[C@H]3CC[C@H](NC(=O)CCCO[C@H]4CC[C@H](OCCNC(=O)[C@H]5CC(=O)N(C)[C@@H]5c5cccnc5)CC4)CC3)nc3ccc(C(F)(F)F)cc23)C1=O [Example 1, (2S,3S)—N-(2-(((1R,4S)-4-(4-(((1S,4R)-4-((3-(4-(((S)-1-((1S,2R,4R)-2-Acetamido-4-(tert-butylamino)cyclohexyl)-2-oxopyrrolidin-3-yl)amino)-6-(trifluoromethyl)quinazolin-2-yl)propyl)carbamoyl)cyclohexyl)amino)-4-oxobutoxy)cyclohexyl)oxy)ethyl)-1-methyl-5-oxo-2-(pyridin-3-yl)pyrrolidine-3-carboxamide]	42.9	0.158	89.18		
CC(=O)N[C@@H]1C[C@H](NC(C)(C)C)CC[C@@H]1N1CC[C@H](Nc2nc(NC3CCN(C(=O)[C@H]4CC[C@H](NC(=O)CCCO[C@H]5CC[C@H](OCCNC(=O)[C@H]6CC(=O)N(C)[C@@H]6c6cccnc6)CC5)CC4)CC3)nc3ccc(C(F)(F)F)cc23)C1=O [Example 13, (2S,3S)-N-(2-(((1R,4S)-4-(4-(((1S,4R)-4-(4-((4-(((S)-1-((1S,2R,4R)-2Acetamido-4-(tert-butylamino)cyclohexyl)-2-oxopyrrolidin-3-yl)amino)-6-(trifluoromethyl)quinazolin-2-yl)amino)piperidine-1-carbonyl)cyclohexyl)amino)-4-oxobutoxy)cyclohexyl)oxy)ethyl)-1-methyl-5-oxo-2-(pyridin-3-yl)pyrrolidine-3-carboxamide]		0.316		68	10100
